Assay results reported in patent publication US7872040B2, “Receptor blocker and vasodilator comprising indole derivative as active ingredient” (priority 2004, dated 2011).

What was measured:
α2-adrenoceptor = experiment: Relaxation of clonidine-induced contraction of isolated rat thoracic aorta ring preparations (α2-receptor antagonistic and vasodilator effect); details: sample 10^-5 M; Wistar rat thoracic aorta rings contracted with clonidine (10^-7 M or 10^-6 M) in presence of L-NAME 10^-4 M; mean±standard error
Source text: (1) Preparation of Blood Vessel
Male Wistar rats were euthanized by cervical dislocation under ether anesthesia or without anesthesia and then exsanguinated by cutting the carotid arteries. Immediately thereafter, the thoracic aortae were isolated by thoracotomy. The isolated preparations were held in Krebs-Hepes solutions [mM: NaCl, 126.9; KCl, 5.9; CaCl2, 2.36; MgCl2, 1.18; Hepes, 10.03; glucose, 11.8 (pH=7.4)] gassed with O2 (100%). The connective tissues and adipose tissues were carefully removed under a stereoscopic microscope. Then, the aortic tissue was cut into ring preparations approximately 2 mm in length to use in the experiment. The vascular endothelium was not removed.
(2) Measurement of Muscle Contractile/Relaxant Response
The blood vessel preparations were held in an organ bath (UC-5TD, UFER™ Medical Instrument, Kyoto, Japan) containing 5 ml of Normal Tyrode's solution gassed with 95% O2-5% CO2. Two stainless hooks were used to suspend the preparations. Tension changes were recorded isometrically via tension transducers (T7-8-240, ORIENTEC Co., Ltd, Tokyo, Japan; and TB-611T, NIHON KOHDEN Corp., Tokyo, Japan) and amplifiers (AP-600G and AP-621G, NIHON KOHDEN Corp., Tokyo, Japan; and MSC-2, Labo Support Corporation, Osaka, Japan). Passive tension was set to the optimum tension of 2.0 g. The composition of the Normal Tyrode's solution was as follows: (mM): NaCl, 158.3; KCl, 4.0; CaCl2, 2.0; MgCl2, 1.05; NaH2PO4, 0.42; NaHCO3, 10.0; glucose, 5.6 (pH=7.4, 37±0.5° C.).
The preparations were then incubated for 60 to 90 minutes in Normal Tyrode's solution, which was replaced with 20-minute to 30-minute intervals. To start the experiment, the preparations were first allowed to contract with a high potassium solution (high-KCl, 80 mM KCl) [composition (mM): NaCl, 82.3; KCl, 80.0; CaCl2, 2.0; MgCl2, 1.05; NaH2PO4, 0.42; NaHCO3, 10.0; glucose, 5.6 (pH=7.4)] to confirm that the preparations normally contracted. Then, the preparations were washed with a Normal Tyrode's solution, and the experiment was started.
For the purpose of evaluating the potencies of indole derivatives tested, the artery preparations were stimulated with an α2-adrenoceptor agonist clonidine hydrochloride (Wako Pure Chemical Industries, Ltd., Osaka, Japan) (10^−7 M or 10^−6 M) in the presence of an NO synthase inhibitor N^G-nitro-L-arginine methyl ester (DOJNDO Laboratories, Kumamoto, Japan) (10^−4 M) to thereby induce continuous contraction. After developed tension reached a steady-sate level, samples (indole derivatives) (10^−5 M) were administered to the bath solution. After the relaxant effects of the samples reached the maximum levels, an α2-adrenoceptor antagonist yohimbine hydrochloride (Wako Pure Chemical Industries, Ltd., Osaka, Japan) (10^−5 M) was administered to the bath solution. Relaxant response to yohimbine hydrochloride (10^−5 M) and the height of contraction immediately before sample administration were defined as the maximum relaxation (=100%) and 0%, respectively, and the relaxant effect of the samples were expressed as percentages relative to the maximum relaxation to yohimbine hydrochloride (10^−5 M).
The indole derivatives (samples Nos. 1 to 23) were dissolved in 100% dimethyl sulfoxide at a concentration of 10^−2 M just before use and administered to a 5-mL organ bath for evaluation. All the other drugs were dissolved and diluted in distilled water.
The results were expressed as mean±standard error.

[1] = Clinical report: one test subject took sample No. 16 for 9 months and was followed up; type: in vivo, human
Protocol: A test subject was allowed to take the indole derivative (N-nonanoylindole-3-ethaneamine) of the sample No. 16 for 9 months, and followed up.
Test subject: healthy, 67 kg in body weight
Information before medication: non-smoking, approximately 180 ml of sake per week, well-balanced diets (meats, vegetables, and fishes) without fatty eating. The test subject has 100% white hair and goes to a barber shop once every five weeks. Their mustaches are sparse and remain in an unobtrusive growth state by shaving approximately once every two days. They are in the habit of jogging on Sunday. Muscle ache occurs about two days after the jogging and lasts for approximately 4 days. They feel insecure in erection (ED for approximately half a year).
Dosage and administration: two doses per day, administered at 1 mg around 12 p.m. and at 1 mg around 0 a.m.

[2] = after one month, 1 mg two doses per day

Row | Compound | Reaction (%): relaxant effect relative to the maximum relaxation to yohimbine hydrochloride (10^-5 M) (α2-adrenoceptor) [%] | also measured
1 | COc1ccc2[nH]cc(CCNC(C)=O)c2c1 [compound 1, N-acetyl-5-methoxyindole-3-ethaneamine, reference compound] | 6.7 ± 6.7 | –
2 | COc1ccc2c(c1)c(CCNC(C)=O)cn2C(C)=O [compound 2, N,1-diacetyl-5-methoxyindole-3-ethaneamine] | 18.5 ± 9.8 | –
3 | COc1ccc2[nH]cc(CCN(C(C)=O)C(C)=O)c2c1 [compound 3, N,N-diacetyl-5-methoxyindole-3-ethaneamine] | 25.6 ± 7.5 | –
4 | COc1ccc2[nH]cc(CCNC(C)=O)c2c1Br [compound 4, N-acetyl-4-bromo-5-methoxyindole-3-ethaneamine] | 20.3 ± 4.6 | –
5 | COc1ccc2[nH]c(Br)c(CCNC(C)=O)c2c1 [compound 5, N-acetyl-2-bromo-5-methoxyindole-3-ethaneamine] | 43.1 ± 16.0 | –
6 | COc1cc2c(CCNC(C)=O)c(Br)[nH]c2cc1Br [compound 6, N-acetyl-2,6-dibromo-5-methoxyindole-3-ethaneamine] | 64.0 ± 4.1 | –
7 | COc1ccc2[nH]c(Br)c(CCNC(C)=O)c2c1Br [compound 7, N-acetyl-2,4-dibromo-5-methoxyindole-3-ethaneamine] | 73.5 ± 15.3 | –
8 | COc1c(Br)cc2[nH]c(Br)c(CCNC(C)=O)c2c1Br [compound 8, N-acetyl-2,4,6-tribromo-5-methoxyindole-3-ethaneamine] | 85.6 ± 12.0 | –
9 | COc1c(Br)cc2c(c1Br)c(CCNC(C)=O)c(Br)n2C(C)=O [compound 9, N,1-diacetyl-2,4,6-tribromo-5-methoxyindole-3-ethaneamine] | 97.6 ± 2.4 | –
10 | O=C(NCCc1c[nH]c2ccccc12)C1CC1 [compound 10, N-cyclopropylcarbonylindole-3-ethaneamine] | 21.4 | –
11 | O=C(NCCc1cn(O)c2ccccc12)C1CC1 [compound 11, 1-hydroxy-N-cyclopropylcarbonylindole-3-ethaneamine] | 15.7 ± 6.8 | –
12 | CCCCC(=O)NCCc1c[nH]c2ccccc12 [compound 12, N-pentanoylindole-3-ethaneamine] | 26.9 ± 11.4 | –
13 | CCCCC(=O)NCCc1cn(O)c2ccccc12 [compound 13, 1-hydroxy-N-pentanoylindole-3-ethaneamine] | 25.6 ± 6.0 | –
14 | CCCCCCC(=O)NCCc1c[nH]c2ccccc12 [compound 14, N-heptanoylindole-3-ethaneamine] | 70.0 ± 6.9 | –
15 | CCCCCCC(=O)NCCc1cn(O)c2ccccc12 [compound 15, 1-hydroxy-N-heptanoylindole-3-ethaneamine] | 66.2 ± 13.9 | –
16 | CCCCCCCCC(=O)NCCc1c[nH]c2ccccc12 [compound 16, N-nonanoylindole-3-ethaneamine] | 80.7 ± 2.5 | erection ([1]; after nine months): became equal to that in their newly-married days; hair regrowth ([1]; after nine months): approximately half the hairs in the whole head except for the left frontal part of the temporal region were black hairs; muscle ache after jogging ([1]; after nine months): rapidly disappeared in one day; skin tone and complexion ([1]; after nine months): improved; erection ([1]; after one month): considerably improved; memory ([1]; after one month): memory was improved; muscle ache after jogging ([1]; after one month): slight; growth of the black hairs [1, 2]: approximately 0.5 mm per day; hair regrowth [1, 2]: black hairs were observed to grow in the scalp of the frontal part of the parietal region that had no hair; erection ([1]; after three months): improved; hair regrowth ([1]; after three months): Many black hairs were observed to grow throughout the head except for the left frontal part of the temporal region; memory ([1]; after three months): memory and retentive powers were recovered; time until muscle ache after jogging disappeared ([1]; after three months): 2 days; duration of dilation of cutaneous and penile blood vessels ([1]; person, 1 mg two doses per day): approximately 10 hours
17 | CCCCCCCCC(=O)NCCc1cn(O)c2ccccc12 [compound 17, 1-hydroxy-N-nonanoylindole-3-ethaneamine] | 79.0 ± 13 | –
18 | O=C(CCCc1c[nH]c2ccccc12)NC12CC3CC(CC(C3)C1)C2 [compound 18, N-adamantyl-4-(indole-3-yl)butaneamide] | 58.6 ± 10.6 | –
19 | O=C(CCCc1c[nH]c2ccccc12)NC12CC3CC(CC(C3)C1)C2 [compound 23, N-adamantyl-4-(indole-3-yl)butaneamide] | 91.5 ± 1.32 | –
20 | N-adamantyl-2-(1-hydroxyindole-3-yl)acetamide [compound 22] | 100.0 ± 0.00 | –
21 | N-adamantyl-2-(indole-3-yl)acetamide [compound 20] | 64.2 ± 8.70 | –
22 | N-adamantyl-3-(indole-3-yl)propaneamide [compound 19] | 60.6 ± 20.7 | –
23 | N-adamantyl-4-(1-hydroxyindole-3-yl)butaneamide [compound 21] | 87.7 ± 8.53 | –
